According to patent publication US20080280837A1, “Biologically Active Compounds with Anti-Angiogenic Properties” (priority 2004, published 2008):

What was measured:
[1] = In vivo pharmacokinetic evaluation after i.v. and p.o. administration to rats; conditions: rat, plasma, po, 25 mg/Kg, Rat 3, PO; calculated using AUC0-480; read-out: BA (oral bioavailability)
[2] = tested on: PC-3 human prostate tumour xenograft; test: Nude mouse model of human PC-3 prostate tumours; assay type: in vivo, nude mice; conditions: PC-3 xenograft
Protocol: Initial Maximum Tolerated Dose (MTD) studies were done in male nude mice to determine the appropriate intravenous dosing regimen for the PC-3 human prostate tumour model. A range of doses between 0 and 50 mg/Kg for 28 days (qdx28) were tested. Mice were randomized into groups with 5 animals per group including vehicle control. Animals were weighed twice weekly starting on day one and observed daily for adverse reactions or toxicity due to the agent. MTD studies determined the selection of 20 mg/kg and 35 mg/kg for intravenous dosing once per day for 28 days in the PC-3 human prostate tumour xenograft model.
Male nude mice (nu/nu) between 5 and 6 weeks of age weighing approximately 25 g were implanted subcutaneously (s.c) by trocar with fragments of PC-3 human tumour carcinomas harvested from s.c growing tumours in host mice. PC-3, is a metastatic human prostate adenocarcinoma cell line originating from a person. When tumours reached approximately 36 mm^3 in size animals were pair matched into treatment and control groups with 10 mice in each group. […]
At the end of the treatment period the mice were weighed and sacrificed. Each tumour was excised and weighed and a mean actual tumour weight (mg) per group was calculated along with the mean actual volume ([…]). […] Mean tumour regression was determined using the formula [1−(mean actual tumour weightFINAL/mean tumour weightDAY 1)×100%].

in vitro = conditions: human, Caco-2
Protocol: The Caco-2 assay was performed according to the procedure described in the following cited article [Caco-2 Monolayers in Experimental and Theoretical Predictions of Drug Transport, Artursson P, Palm K, Luthman K., Adv. Drug Deliv. Rev., 2001, 46, 27-43].

SSTR-2 = biological target: T1, SSTR-2 (Homo sapiens, UniProt P30874); test: Radioligand binding screen against somatostatin subtype SSTR-2
T1 construct: expressed in transfected cells
Protocol: Receptor membrane preparations containing the desired cloned receptor (for example cloned human somatostatin receptor subtype 5, SSTR5) and radio-labeled ligand (for example 3-[^125I]iodotyrosyl^11 Somatostatin-14)) were diluted at the concentration required for testing and according to the specific parameters associated with the selected receptor-ligand combination, including receptor Bmax, ligand Kd and any other parameters necessary to optimize the experimental conditions. When tested for competition activity to the reference ligand, “compound 1” was mixed with membrane suspension and the radiolabeled reference ligand (with or without an excess of cold ligand to the receptor for determination of non-specific binding) and incubated at the temperature required by internal standard operating procedures. Following incubation, the binding reaction was stopped by the addition of ice-cold washing buffer and filtered on appropriate filters, which are then counted. Data analysis and curve-fitting was performed with XLfit (IDBS).
10 mM solutions of test compounds in 100% DMSO were prepared. ˜160 μl was used for each dilution (20 μl/well in triplicate).
A 1.25 mM assay stock was prepared by making a 1:8 dilution of the 10 mM solution. (To 30 μL of the 10 mM solution was added 210 μL milli-Q H2O. A 1:5 dilution series in milli-Q H2O was then prepared.
In primary screening experiments compounds were tested in duplicate for a particular concentration.

T1 sequence (P30874 whole entry): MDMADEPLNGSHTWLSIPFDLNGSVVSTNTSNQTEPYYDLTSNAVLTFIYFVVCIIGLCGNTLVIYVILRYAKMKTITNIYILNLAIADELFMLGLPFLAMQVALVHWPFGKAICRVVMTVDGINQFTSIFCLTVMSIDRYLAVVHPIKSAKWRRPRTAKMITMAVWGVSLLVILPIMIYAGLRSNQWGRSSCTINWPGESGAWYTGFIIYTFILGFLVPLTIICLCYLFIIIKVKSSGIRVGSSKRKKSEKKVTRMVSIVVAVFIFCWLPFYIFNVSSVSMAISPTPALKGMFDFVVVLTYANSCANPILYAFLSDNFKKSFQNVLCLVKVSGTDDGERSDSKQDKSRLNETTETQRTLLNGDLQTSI

bioavailability [1]: 4.95%
Papp (in vitro): 1.04 ×10⁻⁶ cm/s
IC50 (SSTR-2; concentration required to displace 50% of the competitive radioligand, read-out: IC50 SSTR2): 7.5 µM
selectivity SSTR2 (SSTR-2; normalized IC50: lowest IC50 for a compound = 1): 23.2
Hillslope SSTR2 (SSTR-2; slope of binding curve): 1.2
Structure (SMILES): COC[C@H]1O[C@H](OCCc2ccccc2)[C@H](NC(=O)CCCN)[C@@H](OCc2ccc3ccccc3c2)[C@@H]1O [Compound 1]
Tumour growth inhibition (TGI) ([2]; 20 mg/kg i.v. daily): 34%
Tumour growth inhibition (TGI) ([2]; 35 mg/kg i.v. daily): 34%
